Assay results reported in patent US9278981B2, “Compounds and compositions for inhibiting the activity of ABL1, ABL2 and BCR-ABL1” (Novartis AG, priority 2012, dated 2016).

Tests used:
[1] = target: T1, ABL1 (64-515) (Homo sapiens (Human), UniProt P00519); assay: Radio ABL1 (64-515) assay (radiometric filter-binding); type: biochemical
[2] = target: T1, ABL1 (64-515); assay: Caliper ABL1 (64-515) assay (microfluidic mobility shift); type: biochemical
[3] = test system: Ba/F3-BCR-ABL1-WT cells; assay: cells; details: Mus musculus, 48 h, read-out: Ba/F3-BCR-ABL1-WT IC50 [μM]
Text: To generate Ba/F3 cells that depend on BCR-ABL1 expression for growth and survival, Ba/F3 cells were engineered to express BCR-ABL1 using retroviral transduction with a MSCV based retroviral vector containing a p210 BCR-ABL1 expression cassette. […] These cells are referred to as Ba/F3-BCR-ABL-WT.
Ba/F3-BCR-ABL1-WT cells and Ba/F3-BCR-ABL1-T315I cells were maintained in RPMI1640 media with L-glutamine, HEPES (Lonza) and 10% FBS (Gibco).
For each cell line, the cell density was adjusted to 50 000 cells/mL and 50 μL (2500 cells) added per well of a 384-well assay plate.
Test compounds were resuspended in DMSO at a concentration of 10 mM. A serial three-fold dilution of each compound with DMSO was performed in 384-well plates using the Janus Liquid Dispenser (PerkinElmer). Compound was delivered to the assay plates containing 2500 cells in a 50 μL volume via Acoustic delivery from an ATS-100 (EDC).
Cells were incubated at 37° C. in a humidified environment with 5% carbon dioxide for 48 hours. Britelite plus solution (Perkin Elmer) was prepared according to the manufacturer's instructions and 25 μL added to each well of the assay plate. […] The degree of luminescence correlates with the number of cells in each well. The effect of each inhibitor concentration can therefore be calculated and IC50 values generated.

[4] = test system: BCR-ABL1+KCL-22 cells; assay: Acquired resistance in BCR-ABL1+KCL-22 cells in vitro; type: cell-based; details: cells treated every 3-4 days

T1 sequence (P00519 64-515): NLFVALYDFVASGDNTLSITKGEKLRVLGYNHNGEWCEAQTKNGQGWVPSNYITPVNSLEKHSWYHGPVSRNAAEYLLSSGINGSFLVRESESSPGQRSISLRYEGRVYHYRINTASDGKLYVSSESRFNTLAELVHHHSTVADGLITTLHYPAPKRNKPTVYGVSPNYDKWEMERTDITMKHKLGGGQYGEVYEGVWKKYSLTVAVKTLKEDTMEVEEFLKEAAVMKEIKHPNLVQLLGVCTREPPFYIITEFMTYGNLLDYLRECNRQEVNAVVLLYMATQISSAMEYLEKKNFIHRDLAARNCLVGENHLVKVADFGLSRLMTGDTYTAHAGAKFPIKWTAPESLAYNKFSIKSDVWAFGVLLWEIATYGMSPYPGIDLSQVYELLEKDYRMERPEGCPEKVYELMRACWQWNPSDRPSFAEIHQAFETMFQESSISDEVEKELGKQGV

Structure (SMILES)	IC50 [1] [nM]	IC50 [2] [nM]	IC50 [3] [µM]	time until acquired resistance [4] [days]
O=C(Nc1ccc(SC(F)(F)Cl)cc1)c1cnc(N2CC[C@@H](O)C2)c(-c2cncc(F)c2)c1 [Example 218, (R)—N-(4-((Chlorodifluoromethyl)thio)phenyl)-5′-fluoro-2-(3-hydroxypyrrolidin-1-yl)-[3,3′-bipyridine]-5-carboxamide]	3	0.6	0.0009	
N[C@H]1CN(c2ccc(C(=O)Nc3ccc(OC(F)(F)Cl)cc3)cc2-c2cncc(F)c2)C[C@@H]1O [Example 285, 4-((3S,4S)-3-Amino-4-hydroxypyrrolidin-1-yl)-N-(4-(chlorodifluoromethoxy)phenyl)-3-(5-fluoropyridin-3-yl)benzamide]	1	0.6	0.0053	
Cc1ncncc1-c1cc(C(=O)Nc2ccc(OC(F)(F)Cl)cc2)ccc1N1C[C@H](O)[C@@H](O)C1 [Example 297, N-(4-(Chlorodifluoromethoxy)phenyl)-4-((3S,4S)-3,4-dihydroxypyrrolidin-1-yl)-3-(4-methylpyrimidin-5-yl)benzamide]		1.4	0.0013	
O=C(Nc1ccc(C(F)(F)C(F)(F)F)cc1)c1cnc(N2CC[C@@H](O)C2)c(-c2cncnc2)c1 [Example 208, (R)-6-(3-Hydroxypyrrolidin-1-yl)-N-(4-(perfluoroethyl)phenyl)-5-(pyrimidin-5-yl)nicotinamide]	< 3	0.6	0.0039	
O=C(Nc1ccc(OC(F)(F)Cl)cc1)c1cnc(N2CC[C@@H](O)C2)c(-c2cncnc2)c1 [Example 170, (R)—N-(4-(Chlorodifluoromethoxy)phenyl)-6-(3-hydroxypyrrolidin-1-yl)-5-(pyrimidin-5-yl)nicotinamide]			0.0005	
CC(F)(F)Oc1ccc(NC(=O)c2cnc(N3CC[C@@H](O)C3)c(-c3cncnc3)c2)cc1 [Example 215, (R)—N-(4-(1,1-Difluoroethoxy)phenyl)-6-(3-hydroxypyrrolidin-1-yl)-5-(pyrimidin-5-yl)nicotinamide]	1.2	7.9	0.0246	
O=C(Nc1ccc(OC(F)(F)Cl)cc1)c1cnc(N2CC[C@@H](CO)[C@@H](O)C2)c(-c2cncnc2)c1 [Example 257]	3	0.6	0.0011	
Cc1cn(-c2cc(NC(=O)c3ccc(C)c(Nc4nccc(-c5cccnc5)n4)c3)cc(C(F)(F)F)c2)cn1 [nilotinib]				18 to 21
O=C(Nc1ccc(S(F)(F)(F)(F)F)cc1)c1cnc(N2CC[C@@H](O)C2)c(-c2cncnc2)c1 [Example 216, (R)-6-(3-Hydroxypyrrolidin-1-yl)-5-(pyrimidin-5-yl)-N-(4-(pentafluorosulfanyl)phenyl)nicotinamide]	3	0.7	0.0074	
N#Cc1cncc(-c2cc(C(=O)Nc3ccc(OC(F)(F)Cl)cc3)cnc2N2C[C@@H](O)[C@@H](O)C2)c1 [Example 268]	0.5	0.4	0.0032	
O=C(Nc1ccc(OC(F)(F)Cl)cc1)c1cnc(N2CC[C@H](CO)C2)c(-c2cncnc2)c1 [Example 174, (S)—N-(4-(Chlorodifluoromethoxy)phenyl)-6-(3-(hydroxymethyl)pyrrolidin-1-yl)-5-(pyrimidin-5-yl)nicotinamide]	3	0.9		
O=C(Nc1ccc(OC(F)(F)C(F)(F)F)cc1)c1cnc(N2CC[C@@H](O)C2)c(-c2cncnc2)c1 [Example 220, (R)-6-(3-Hydroxypyrrolidin-1-yl)-N-(4-(perfluoroethoxy)phenyl)-5-(pyrimidin-5-yl)nicotinamide]	6	2.3		
